Results published in PMC10447463, “Data-mining unveils structure–property–activity correlation of viral infectivity enhancing self-assembling peptides” (Nature Communications, 2023).
Like-named read-outs stand apart in the source and are kept apart here.

How the values were obtained:
[1] = Turbidity, derived count rate of scattered light; format: physicochemical; conditions: for Count Rate / kcps: derived count rate of scattered light at 633 nm, 173°, from zeta-potential measurement, 0.1 mg/mL in 1 mM KCl after 1 d at 1 mg/mL in PBS, turbidity / microscopic aggregation, mean of triplicate
Method in brief: (§1)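 One-day room-temperature aggregation at 1 mg/mL in PBS (pH 7.4) preceded measurement; samples then went into 1 mM KCl. Triplicates per sample, two independent experiments averaged.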

[2] = Zeta-potential measurement; format: physicochemical
Method in brief: as §1

[3] = β-sheet content by ATR-FT-IR; format: physicochemical; conditions: Fig. S7 panel A; β-sheet content by ATR-FT-IR
Method in brief: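 β-sheet content came from ATR FT-IR spectra of lyophilized 1 mg/mL nanofibril solution (64 scans, 2 cm^-1 resolution). Conversion was measured by separating free monomer with a 3 kDa cutoff filter, then comparing fluorescamine fluorescence (ex 365/em 470 nm, 20 min RT) of filtrate versus unfiltered sample, in triplicate.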

[4] = system: HIV-1 infection of TZM-bl cells; experiment: HIV-1 infectivity enhancement assay, β-galactosidase luminescence; format: cell-based; conditions: for Rel-EFC: infection relative to EF-C (QCKIKQIINMWQ = 1); for Log10 Infection Rel EFC: log10 of infection relative to EF-C; for Log Infectivity: Log10 infection relative to EF-C, TZM-bl cells, asymmetric std dev errors; for Log10 Infection Rel EF-C: HIV-1 infection of TZM-bl cells; for Abs. Inf.: absolute infection signal, HIV-1 on TZM-bl cells, β-galactosidase luminescence; for Log10 Inf. rel. to EF-C: log10 of HIV-1 infection of TZM-bl cells relative to EF-C (EF-C = 0); for Log10 of Rel to EFC (Feb2021): Log10 of infection relative to EF-C, all peptides of FigS16
[5] = Log10 of derived count rate of scattered light (turbidity)
[6] = turbidity, Log10 of derived count rate of scattered light, Figure 3A source data
[7] = turbidity, log10 of derived count rate of scattered light
[8] = zeta-potential of peptide, source data of Figure 2C
[9] = zeta-potential of the peptide assemblies, mean, Figure 3A source data
[10] = Fig. S7 panel A (plotted against β-sheet content)
[11] = Log10 of infection rate relative to EF-C, Figure 3A source data
[12] = infection rate relative to EF-C, log10, data of Figure 2D
[13] = infection rate relative to EF-C, log10, source data of Figure 2C
[14] = zeta potential of peptide assemblies
[15] = Fig. S7 panel B (plotted against CR), rounded to two decimals
[16] = log10 of derived count rate of scattered light (turbidity)
[17] = logarithm of count rate in kcps

Substance | Log10 Count Rate [1, 5] | Count Rate / kcps [1] | Log10 Count Rate [1, 6] | Log10 Count Rate [1, 7] | Zeta-Pot. [2] | Zeta-Potential / mV [2, 8] | Zeta-Potential / mV [2, 9] | b -sheet / % [3] | Rel-EFC ([4]; 1.3 µM peptide) | Log10 Infection Rel EFC ([4]; 1.3 µM peptide) | Log Infectivity [4, 10] | Log10 Infection Rel EF-C [4, 11] | Log10 Infection Rel EF-C [4, 12] | Log10 Infection Rel EF-C [4, 13] | Abs. Inf. [4] | Log10 Inf. rel. to EF-C [4] | also measured
KFKQFFNMWQ | 2.375 | 237 kcps | 2.375 | 2.375 | -3.43 | -2.615 mV | -3.43 mV | 32.75% | 0,09 | -1,05 | -1.0494 | -1.05 | -1.0494 | -1.0494 | 1000 | -1.0494 | –
KIKIQI | 2.035 | 108 kcps | 2.035 | 2.035 | – | -2.515 mV | -5.63 mV | 38.6% | 0,07 | -1,17 | -1.169 | -1.17 | -1.169 | -1.169 | – | -1.169 | Zeta-Pot. [2, 14]: -5.63; Log Infectivity [4, 15]: -1.17
KWKWQW | 3.189 | 1545 kcps | 3.189 | – | – | 3.331 mV | 7.55 mV | 30.47% | 0,01 | -1,84 | -1.838 | -1.84 | -1.838 | -1.838 | – | – | Log10 Count Rate [1, 16]: 3.189; Log10 Count Rate [1, 17]: 3.189; Zeta-Pot. [2, 14]: 7.55
CEIEIQI | 1.716 | 52 kcps | 1.716 | 1.716 | -26.1 | -24.43 mV | -26.1 mV | 45% | 0,03 | -1,55 | -1.554 | -1.55 | -1.554 | -1.554 | 633.3 | -1.554 | Log Infectivity [4, 15]: -1.55
CKIKIQIII | 3.695 | 4953 kcps | 3.695 | 3.695 | 16.2 | 16.2 mV | 16.2 mV | 36.7% | 0,98 | -0,01 | -0.01045 | -0.01 | -0.01045 | -0.01045 | 22150 | -0.01045 | n-fold Infection, 1.3 µM ([4]; 1.3 µM peptide, n-fold infection): 41 n-fold; Log10 of Rel to EFC (Feb2021) [4]: -0.01
KYKGAIIGNIK | 1.644 | 44 kcps | 1.644 | 1.644 | -9.14 | -5.205 mV | -9.14 mV | 44.63% | 0 | -2,51 | -2.508 | -2.51 | -2.508 | -2.508 | 80 | -2.508 | –
QCKIKIQINMWQ | 3.918 | 8271 kcps | 3.918 | 3.918 | 11.73 | 11.38 mV | 11.73 mV | 36.23% | 1,04 | 0,02 | 0.01546 | 0.02 | 0.01546 | 0.01546 | 21221.11111 | 0.01546 | Count Rate ([1]; T0, mean of n = 3): 9558.2 kcps; Count Rate ([1]; T2m, mean of n = 3): 6927 kcps; Log10 Count Rate [1, 17]: 3.918; Log Infectivity [4, 15]: 0.02; Log10 of Rel to EFC (Feb2021) [4]: 0.02
CEFEFQF | 2.565 | 367 kcps | 2.565 | – | – | -10.825 mV | -13.7 mV | 53% | 0,01 | -2,28 | -2.283 | -2.28 | -2.283 | -2.283 | – | – | Log10 Count Rate [1, 16]: 2.565; Zeta-Pot. [2, 14]: -13.7
HGDKCHGDKC | 1.095 | 12 kcps | 1.095 | 1.095 | -11.63 | -8.035 mV | -11.63 mV | 4.749% | 0,01 | -1,99 | -1.991 | -1.99 | -1.991 | -1.991 | 263.3 | -1.991 | Log Infectivity [4, 15]: -1.99
NMWQKAKAQA | 2.384 | 242 kcps | 2.384 | 2.384 | -5.56 | -4.582 mV | -5.56 mV | 37.34% | 0,04 | -1,38 | -1.376 | -1.38 | -1.376 | -1.376 | 1137 | -1.376 | –
KAKQAANMWQ | 2.839 | 690 kcps | 2.839 | 2.839 | -12.9 | -8.433 mV | -12.9 mV | 10.94% | 0,03 | -1,51 | -1.514 | -1.51 | -1.514 | -1.514 | 343.3 | -1.514 | –
QCKIKQIINM | 4.313 | 20551 kcps | 4.313 | 4.313 | 10.4 | 9.992 mV | 10.4 mV | 38.44% | 0,35 | -0,46 | -0.4555 | -0.46 | -0.4555 | -0.4555 | 11186.66667 | -0.4555 | Log10 of Rel to EFC (Feb2021) [4]: -0.46
EIEIEIEI | 2.731 | 538 kcps | 2.731 | 2.731 | – | -7.535 mV | -8.92 mV | 62.61% | 0,02 | -1,75 | -1.748 | -1.75 | -1.748 | -1.748 | – | -1.748 | Zeta-Pot. [2, 14]: -8.92
FDPFDPFDP | 2.412 | 258 kcps | 2.412 | 2.412 | -10.9 | -6.68 mV | -10.9 mV | 48.89% | 0,02 | -1,63 | -1.6317 | -1.63 | -1.6317 | -1.6317 | 346.7 | -1.6317 | –
